This is an account of results in patent US9751878B2, “Tetrahydronaphthyridine somatostatin receptor 5 antagonists” (Takeda Pharmaceutical Company Limited, priority 2013, dated 2017).

Experiment [1] has as its system Male KK-Ay/Ta mice, a type 2 diabetes model. As to the kind of experiment: Antidiabetic effect in mice (2). The format is in vivo. The conditions noted are these: 0.03% food admixture with CE-2 diet for 2 weeks; n=7. How it is done:
Antidiabetic Effect in Mice (2)
Male KK-Ay/Ta mice (Clea Japan Inc.), a type 2 diabetes model, were used in this study. At the age of 7-week old, blood samples were collected from tail vein at 8:00 am, and animals were divided into separate groups (n=7) based on glycated hemoglobin (GHb), plasma glucose, insulin, triglyceride levels and body weight. The Compound of Example 35 (0.03% (weight % of the compound in the food admixture)) was administered by food admixture with CE-2 diet (Clea Japan Inc.) for 2 weeks. After 2 weeks of treatment, GHb was determined by auto-analyzer HLC-723G8 (TOSOH, Japan).

For experiment [2] the test system is unchanged. Nature of the experiment: Antidiabetic effect in mice (1). It is filed as in vivo. The conditions noted are these: 10 mg/kg orally once a day for 2 weeks; n=8. How it is done: Antidiabetic Effect in Mice (1)
Male KK-Ay/Ta mice (Clea Japan Inc.), a type 2 diabetes model, were used in this study. At the age of 7-week old, blood samples were collected from tail vein at 8:00 am, and animals were divided into separate groups (n=8) based on glycated hemoglobin (GHb), plasma glucose, insulin, triglyceride levels and body weight. Vehicle (0.5% (w/v) methylcellulose) or the compound of Example 67 (10 mg/kg) (suspended in vehicle) were orally administered once a day for 2 weeks. After 2 weeks of treatment, GHb was determined by auto-analyzer HLC-723G8 (TOSOH, Japan).

For experiment [3], the system named is high fat diet-fed male C57BL6J mice. As to the kind of experiment: Glucose tolerance test in mice (oral glucose tolerance test). It is filed as in vivo. The conditions noted are these: 1 mg/kg oral, n=6. How it is done: Glucose Tolerance Test in Mice
Oral glucose tolerance test was performed in high fat diet-fed male C57BL6J mice (Clea Japan Inc.). 8 weeks old mice were fasted overnight and divided into separate groups (n=6) based on plasma glucose levels and body weight. Vehicle (0.5% (w/v) methylcellulose) or the compound of Example 72 (1 mg/kg) (suspended in vehicle) were orally given to animals and glucose was loaded (5 g/kg) 1 h after drug administration. Blood was collected from tail vein and blood glucose levels (mg/dL) were measured by ACCU-CHEK (Roche Inc.) at time 0 (just before glucose load), 10, 30, 60 and 120 min after glucose load.

A further experiment concerns the target T1, human SSTR5 (Homo sapiens, UniProt P35346).
T1 construct: expressed in transfected cells
Nature of the experiment: Evaluation of human SSTR5 antagonist activity using intracellular cAMP concentration as index. It is filed as cell-based. The conditions noted are these: 1 μM test compound; CHO (dhfr-) cells stably expressing human SSTR5; 0.1 nM somatostatin 28, 0.3 μM forskolin; cAMP HTRF; read-out: Inhibition rate against SSTR5 at 1 μM. The protocol: Evaluation of Human SSTR5 Antagonist Activity Using Intracellular cAMP Concentration as Index
The intracellular cAMP concentration was measured using HTRF cAMP dynamic 2 kit (Cisbio Bioassays). Each test compound diluted with an assay buffer (HBSS (Invitrogen Corp.) containing 5 mM HEPES (pH 7.5) (Invitrogen Corp.), 0.1% fatty-acid free BSA (Sigma-Aldrich Corp.), and 500 μM IBMX (Wako Pure Chemical Industries, Ltd.)) was added at a concentration of 2 μL/well to a 384-well white plate (Greiner Bio-One Co., Ltd.) to give the final concentration of 1 μM. A frozen stock of CHO (dhfr-) cells stably expressing the human SSTR5 gene (Accession No. NM_001053) was thawed in a thermostat bath of 37° C. and suspended in a subculture medium (MEM alpha (Wako Pure Chemical Industries, Ltd.), 10% dialyzed serum (Gemini Bio-Products), and 50 μg/mL gentamicin (Invitrogen Corp.). After centrifugation of the cell suspension, the cells were resuspended in an assay buffer and added at a concentration of 2 μL/well (about 4,000 cells/well) to the plate. The compound and the cells were incubated for 15 minutes, and then, an assay buffer containing 0.1 nM (final concentration) somatostatin 28 (Toray Research Center) and 0.3 μM (final concentration) forskolin (Wako Pure Chemical Industries, Ltd.) was added thereto at a concentration of 2 μL/well, followed by incubation at room temperature for 30 minutes. cAMP-d2 and anti-cAMP-cryptate were each added thereto at a concentration of 3 μL/well. The plate was left standing at room temperature for 60 minutes. Then, the fluorescence resonance energy transfer (FRET) intensity was measured using Multi-label reader Envision (PerkinElmer). The FRET intensity of the wells supplemented with the test compound group was converted to a cAMP concentration using a calibration curve prepared from the FRET intensity of a well group containing an assay buffer supplemented with an arbitrary concentration of cAMP. The inhibitory activity of each compound was calculated according to the following expression: Inhibitory activity (%)=(C−B)/(A−B)×100 A: cAMP concentration calculated from the wells supplemented with 0.3 μM forskolin B: cAMP concentration calculated from the wells supplemented with 0.3 μM forskolin and 0.1 nM somatostatin 28 C: cAMP concentration calculated from the wells supplemented with 0.3 μM forskolin, 0.1 nM somatostatin 28, and 1 μM test compound

T1 sequence (P35346 whole entry): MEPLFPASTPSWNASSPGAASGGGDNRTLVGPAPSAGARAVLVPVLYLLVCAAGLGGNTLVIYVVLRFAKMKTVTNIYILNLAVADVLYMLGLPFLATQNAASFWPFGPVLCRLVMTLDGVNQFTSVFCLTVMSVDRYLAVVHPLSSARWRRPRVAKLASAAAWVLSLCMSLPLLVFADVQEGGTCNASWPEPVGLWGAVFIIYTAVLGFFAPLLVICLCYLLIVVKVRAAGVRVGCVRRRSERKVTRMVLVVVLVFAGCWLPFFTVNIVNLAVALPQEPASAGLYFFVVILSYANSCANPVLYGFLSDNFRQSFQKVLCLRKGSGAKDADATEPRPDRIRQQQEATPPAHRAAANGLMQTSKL

Regarding `CCCc1nc2c(cc1C(=O)O)C(=O)N(C1CCN(Cc3cc(C4CC4)c(-c4ccc(F)cc4F)cc3OCC)CC1)CC2` [Example 35, 6-(1-((2-Cyclopropyl-5-ethoxy-2′,4′-difluorobiphenyl-4-yl)methyl)piperidin-4-yl)-5-oxo-2-propyl-5,6,7,8-tetrahydro-1,6-naphthyridine-3-carboxylic acid], in experiment [1], the “Average of delta GHb (%)” value worked out at 0.60%.

In the case of `CCCc1nc2c(cc1C(=O)O)C(=O)N(C1CCN(Cc3cc(C4CC4)c(-c4ccc(F)cc4)c(F)c3OCC)CC1)CC2` [Example 67, 6-(1-((6-Cyclopropyl-3-ethoxy-2,4′-difluorobiphenyl-4-yl)methyl)piperidin-4-yl)-5-oxo-2-propyl-5,6,7,8-tetrahydro-1,6-naphthyridine-3-carboxylic acid], in experiment [2], the “Average of delta GHb (%)” value is given as 0.40%.

Consider `CCc1nc2c(cc1C(=O)O)C(=O)N(C1CCN(Cc3cc(C4CC4)c(-c4ccc(F)cc4)c(F)c3OC(C)C)CC1)CC2` [Example 72, 6-(1-((6-Cyclopropyl-2,4′-difluoro-3-isopropoxybiphenyl-4-yl)methyl)piperidin-4-yl)-2-ethyl-5-oxo-5,6,7,8-tetrahydro-1,6-naphthyridine-3-carboxylic acid], for which the “blood glucose levels, 10 min” value in experiment [3] (10 min after glucose load (5 g/kg)) was 283 mg/dL. The “blood glucose levels, 30 min” value in experiment [3] (30 min after glucose load (5 g/kg)) is 269 mg/dL. Further, the “blood glucose levels, 60 min” value in experiment [3] (60 min after glucose load (5 g/kg)) was found to be 267 mg/dL. Besides, the “blood glucose levels, 120 min” value in experiment [3] (120 min after glucose load (5 g/kg)) is 140 mg/dL. The “blood glucose levels, 0 min” value in experiment [3] (time 0 (just before glucose load, 1 h after drug administration)) stood at 123 mg/dL. In experiment [3] (blood glucose AUC, glucose load 5 g/kg), this molecule yielded an AUCpre-120 min of 463 mg·h/dL. Moreover, at human SSTR5, the inhibition at 1 µM was found to be 97%.

One may read the inhibition as the share of the control response that was lost under treatment.
